# Experimental data reported in US20260256792A1, “TREATMENT OF CHRONIC SPONTANEOUS URTICARIA BY ADMINISTERING (R)-2-[3-[4-AMINO-3-(2-FLUORO-4-PHENOXY-PHENYL)PYRAZOLO[3,4-D]PYRIMIDIN-1-YL]PIPERIDINE-1-CARBONYL]-4-METHYL-4-[4-(OXETAN-3-YL)PIPERAZIN-1-YL]PENT-2-ENENITRILE” (priority 2023, published 2026).
# System: moderate-to-severe chronic spontaneous urticaria (CSU)
# Experiment: Phase 2 CSU study: urticaria activity score over 7 days (UAS7)
# Format: in vivo, human
# Design: key to UAS7 Median / UAS7 Change from baseline Median / UAS7 change from baseline, Q1 / UAS7 change from baseline, Q3 / UAS7 change from baseline, Max / UAS7 Change from baseline LS Mean (SE): UAS7 points; daily UAS score ranges 0–6 points/day, over 7 days
# Settings: for UAS7 Post-baseline Mean (SD) / UAS7 % Change difference for rilzabrutinib vs. placebo LS Mean (95% CI) / UAS7 % Change from baseline LS Mean (SE) / UAS7 Change difference for rilzabrutinib vs. placebo LS Mean (95% CI) / UAS7 Change from baseline LS Mean (SE): Omalizumab-Naïve Population; for Change from Baseline in UAS7 at Week 12: LS Mean (SE) / Change from Baseline in UAS7 at Week 12: LS Mean Diff vs. placebo (95% CI) / Change from Baseline in UAS7 at Week 12: Mean (SD): Omalizumab-Naïve
# Text: The study comprises a 12 week, randomized, double-blind, placebo-controlled, multi-center, dose-ranging efficacy and safety phase, followed by a 40 week open label extension (OLE) phase (see FIG. 1). The study consists of three phases and an optional OLE phase. […] Clinically, CSU is characterized by the spontaneous and recurrent appearance of pruritic hives. The proposed primary endpoints were the UAS7 at Week 12 in EU and EU reference countries and the ISS7 in the US. Regardless of where a participant was from, all assessments were the same. The UAS7 score is a composite score containing both the HSS7 and the ISS7. This allowed a global assessment of the two key components of urticaria: hives and itch. […] The UAS is a validated PRO measure. […] The daily UAS scores range from 0 to 6 point/day. […] Patients were to complete the UAS using the e-diary. […] The following secondary endpoints were to be analyzed using the same approach as for the primary endpoint: • Change from baseline in UAS7 at Week 4 • Change from baseline in UAS7 at Week 12 (for US and US reference countries) • Change from baseline in ISS7 at Week 12 (except US and US reference countries) • Change from baseline in HSS7 at Week 12 The following responder secondary endpoints were to be analyzed using the Cochran-Mantel-Haenszel test adjusted by region: • Proportion of participants with UAS7<6 at Week 12 • Proportion of participants with UAS7=0 at Week 12 Participants who received selected prohibited medications and/or rescue medications were to be considered as non-responders for time points after the medication usage. For other participants, all available data including those collected during the off-treatment period were to be used to determine the responder/non-responder status. Missing data were to be considered as non-responders.
# [1] = Age group (years) <44 (Median), 400 mg BID
# [2] = Age group (years) <44 (Median), 400 mg QPM
# [3] = Age group (years) <44 (Median), 400 mg TID
# [4] = Age group (years) <65, 400 mg BID
# [5] = Age group (years) <65, 400 mg QPM
# [6] = Age group (years) <65, 400 mg TID
# [7] = Age group (years) ≥44 (Median), 400 mg BID
compound,measurement,setting,value
"CC(C)(C=C(C#N)C(=O)N1CCC[C@@H](n2nc(-c3ccc(Oc4ccccc4)cc3F)c3c(N)ncnc32)C1)N1CCN(C2COC2)CC1 [rilzabrutinib, (R)-2-[3-[4-amino-3-(2-fluoro-4-phenoxy-phenyl)pyrazolo[3,4-d]pyrimidin-1-yl]piperidine-1-carbonyl]-4-methyl-4-[4-(oxetan-3-yl)piperazin-1-yl]pent-2-enenitrile]",UAS7 Post-baseline Mean (SD),"400 mg QPM, Week 3",22.01 (9.00)
same,UAS7 % Change difference for rilzabrutinib vs. placebo LS Mean (95% CI),"400 mg QPM, Week 4",−8.22%
same,UAS7 % Change from baseline LS Mean (SE),"400 mg QPM, Week 4",−28.63 (5.66) %
same,UAS7 Change difference for rilzabrutinib vs. placebo LS Mean (95% CI),"400 mg QPM, Week 4",−2.08
same,UAS7 Change from baseline LS Mean (SE),"400 mg QPM, Week 4",−9.14 (1.66)
same,UAS7 Post-baseline Mean (SD),"400 mg QPM, Week 4",21.92 (8.82)
same,UAS7 Post-baseline Mean (SD),"400 mg QPM, Week 5",20.63 (9.18)
same,UAS7 Post-baseline Mean (SD),"400 mg QPM, Week 6",20.21 (10.42)
same,UAS7 Post-baseline Mean (SD),"400 mg QPM, Week 7",21.11 (10.03)
same,UAS7 Post-baseline Mean (SD),"400 mg QPM, Week 9",20.25 (10.25)
same,UAS7 Post-baseline Mean (SD),"400 mg QPM, Week 10",20.27 (10.69)
same,UAS7 Post-baseline Mean (SD),"400 mg QPM, Week 11",21.17 (11.16)
same,UAS7 % Change difference for rilzabrutinib vs. placebo LS Mean (95% CI),"400 mg QPM, Week 12",−4.51%
same,UAS7 % Change from baseline LS Mean (SE),"400 mg QPM, Week 12",−34.79 (6.80) %
same,UAS7 Change difference for rilzabrutinib vs. placebo LS Mean (95% CI),"400 mg QPM, Week 12",0.40
same,UAS7 Change from baseline LS Mean (SE),"400 mg QPM, Week 12",−9.74 (2.00)
same,UAS7 % Change difference for rilzabrutinib vs. placebo LS Mean (95% CI),"400 mg TID, Week 1",−27.13%
same,UAS7 % Change from baseline LS Mean (SE),"400 mg TID, Week 1",−36.60 (5.66) %
same,UAS7 Change difference for rilzabrutinib vs. placebo LS Mean (95% CI),"400 mg TID, Week 1",−7.89
same,UAS7 Change from baseline LS Mean (SE),"400 mg TID, Week 1",−11.44 (1.56)
same,UAS7 Post-baseline Mean (SD),"400 mg TID, Week 1",17.77 (10.26)
same,UAS7 % Change difference for rilzabrutinib vs. placebo LS Mean (95% CI),"400 mg TID, Week 2",−27.13%
same,UAS7 % Change from baseline LS Mean (SE),"400 mg TID, Week 2",−44.90 (5.51) %
same,UAS7 Change difference for rilzabrutinib vs. placebo LS Mean (95% CI),"400 mg TID, Week 2",−7.73
same,UAS7 Change from baseline LS Mean (SE),"400 mg TID, Week 2",−13.63 (1.56)
same,UAS7 Post-baseline Mean (SD),"400 mg TID, Week 2",15.65 (10.66)
same,UAS7 % Change difference for rilzabrutinib vs. placebo LS Mean (95% CI),"400 mg TID, Week 3",−27.19%
same,UAS7 % Change from baseline LS Mean (SE),"400 mg TID, Week 3",−47.14 (5.69) %
same,UAS7 Change difference for rilzabrutinib vs. placebo LS Mean (95% CI),"400 mg TID, Week 3",−6.90
same,UAS7 Change from baseline LS Mean (SE),"400 mg TID, Week 3",−13.83 (1.65)
same,UAS7 Post-baseline Mean (SD),"400 mg TID, Week 3",15.37 (9.87)
same,UAS7 % Change difference for rilzabrutinib vs. placebo LS Mean (95% CI),"400 mg TID, Week 4",−26.33%
same,UAS7 % Change from baseline LS Mean (SE),"400 mg TID, Week 4",−46.75 (5.92) %
same,UAS7 Change difference for rilzabrutinib vs. placebo LS Mean (95% CI),"400 mg TID, Week 4",−6.60
same,UAS7 Change from baseline LS Mean (SE),"400 mg TID, Week 4",−13.66 (1.72)
same,UAS7 Post-baseline Mean (SD),"400 mg TID, Week 4",14.65 (9.61)
same,UAS7 Change difference for rilzabrutinib vs. placebo LS Mean (95% CI),"400 mg TID, Week 5",−5.10
same,UAS7 Change from baseline LS Mean (SE),"400 mg TID, Week 5",−15.54 (1.72)
same,UAS7 Post-baseline Mean (SD),"400 mg TID, Week 5",13.41 (10.60)
same,UAS7 Post-baseline Mean (SD),"400 mg TID, Week 6",14.10 (11.23)
same,UAS7 Post-baseline Mean (SD),"400 mg TID, Week 7",13.54 (9.34)
same,UAS7 Post-baseline Mean (SD),"400 mg TID, Week 8",13.36 (9.81)
same,UAS7 Post-baseline Mean (SD),"400 mg TID, Week 9",12.57 (9.72)
same,UAS7 Post-baseline Mean (SD),"400 mg TID, Week 10",12.61 (9.89)
same,UAS7 Post-baseline Mean (SD),"400 mg TID, Week 12",11.00 (9.90)
same,Change from Baseline in UAS7 at Week 12: LS Mean (SE),[1],−13.80 (2.95)
same,Change from Baseline in UAS7 at Week 12: LS Mean Diff vs. placebo (95% CI),[1],"−5.42 (−13.05, 2.21)"
same,Change from Baseline in UAS7 at Week 12: Mean (SD),[1],−11.98 (9.69)
same,Change from Baseline in UAS7 at Week 12: LS Mean (SE),[2],−9.54 (2.74)
same,Change from Baseline in UAS7 at Week 12: Mean (SD),[2],−10.45 (10.67)
same,Change from Baseline in UAS7 at Week 12: LS Mean (SE),[3],−16.19 (3.68)
same,Change from Baseline in UAS7 at Week 12: LS Mean Diff vs. placebo (95% CI),[3],"−7.80 (−16.46, 0.86)"
same,Change from Baseline in UAS7 at Week 12: Mean (SD),[3],−18.69 (10.55)
same,Change from Baseline in UAS7 at Week 12: LS Mean (SE),[4],−13.99 (2.04)
same,Change from Baseline in UAS7 at Week 12: LS Mean Diff vs. placebo (95% CI),[4],"−3.58 (−9.19, 2.03)"
same,Change from Baseline in UAS7 at Week 12: Mean (SD),[4],−13.91 (11.95)
same,Change from Baseline in UAS7 at Week 12: LS Mean (SE),[5],−9.12 (1.96)
same,Change from Baseline in UAS7 at Week 12: LS Mean Diff vs. placebo (95% CI),[5],"1.30 (−4.27, 6.86)"
same,Change from Baseline in UAS7 at Week 12: Mean (SD),[5],−10.37 (9.46)
same,Change from Baseline in UAS7 at Week 12: LS Mean (SE),[6],−16.30 (2.11)
same,Change from Baseline in UAS7 at Week 12: LS Mean Diff vs. placebo (95% CI),[6],"−5.88 (−11.58, −0.19)"
same,Change from Baseline in UAS7 at Week 12: Mean (SD),[6],−18.19 (11.00)
same,Change from Baseline in UAS7 at Week 12: LS Mean (SE),[7],−15.12 (2.72)
same,Change from Baseline in UAS7 at Week 12: LS Mean Diff vs. placebo (95% CI),[7],"−3.56 (−11.91, 4.80)"
same,Change from Baseline in UAS7 at Week 12: Mean (SD),[7],−16.63 (13.80)
same,Change from Baseline in UAS7 at Week 12: LS Mean (SE),"Age group (years) ≥44 (Median), 400 mg QPM",−8.84 (2.81)
